Experimental data: PubChem BioAssay (NCI)
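Briefly, cells in 96-well plates were exposed to five compound concentrations for 48 h, and endpoints were estimated by linear interpolation. At the GI50, growth is halved. The concentration for full growth arrest is given as TGI.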

Tests used:
Experiment in all cases: growth of human tumour cells (NCI), 48 h
A549 NSCLC = test system: A549 NSCLC
LOX IMVI melanoma = test system: LOX IMVI melanoma
OVCAR-8 ovarian = test system: OVCAR-8 ovarian
ACHN renal = test system: ACHN renal
HCC-2998 colon = test system: HCC-2998 colon
IGROV1 ovarian = test system: IGROV1 ovarian
SK-OV-3 ovarian = test system: SK-OV-3 ovarian
OVCAR-5 ovarian = test system: OVCAR-5 ovarian
786-0 renal = test system: 786-0 renal
SR leukemia = test system: SR leukemia

| SMILES | GI50 (A549 NSCLC) | TGI (A549 NSCLC) | GI50 (LOX IMVI melanoma) | TGI (LOX IMVI melanoma) | GI50 (OVCAR-8 ovarian) | TGI (OVCAR-8 ovarian) | GI50 (ACHN renal) | TGI (ACHN renal) | GI50 (HCC-2998 colon) | TGI (HCC-2998 colon) | GI50 (IGROV1 ovarian) | TGI (IGROV1 ovarian) | GI50 (SK-OV-3 ovarian) | TGI (SK-OV-3 ovarian) | GI50 (OVCAR-5 ovarian) | TGI (OVCAR-5 ovarian) | GI50 (786-0 renal) | TGI (786-0 renal) | TGI (SR leukemia) | GI50 (SR leukemia) |
| --- | --- | --- | --- | --- | --- | --- | --- | --- | --- | --- | --- | --- | --- | --- | --- | --- | --- | --- | --- | --- |
| Clc1ccc(-c2nc3c(-c4ccc(Cl)cc4)nc(-c4ccccc4)cn3c2-c2ccc(Cl)cc2)cc1 | > 50 µM | > 50 µM | > 50 µM | > 50 µM | > 50 µM | > 50 µM | > 50 µM | > 50 µM | > 50 µM | > 50 µM | 20.5 µM | > 50 µM | 24.2 µM | > 50 µM | > 50 µM | > 50 µM | 46.5 µM | > 50 µM | – | – |
| COC(=O)C(C(=O)C(=O)Nc1cccc(O)c1)c1nc2ccc(Cl)cc2[nH]c1=O (stereo unspecified) | – | > 100 µM | – | > 100 µM | – | > 100 µM | – | > 100 µM | – | > 100 µM | – | > 100 µM | – | > 100 µM | – | > 100 µM | – | > 100 µM | – | – |
| CC(=O)Nc1ccc2nncnc2c1 | – | > 100 µM | – | > 100 µM | – | – | – | > 100 µM | – | – | – | > 100 µM | – | > 100 µM | – | > 100 µM | – | > 100 µM | > 100 µM | – |
| N=C(N)n1ncc(Cl)c(Cl)c1=O | – | 33.6 µM | – | – | – | 4.55 µM | – | 14.3 µM | – | – | – | 28.7 µM | – | 32 µM | – | 30.7 µM | – | 7.02 µM | – | – |
| CC1=C(C(=O)Nc2cccc(C(F)(F)F)c2)C(c2ccc(O)cc2)C(C(=O)Nc2cccc(C(F)(F)F)c2)=C(C)N1 | – | > 100 µM | – | 33.1 µM | – | 76.6 µM | – | 96.2 µM | – | 36.3 µM | – | 89.2 µM | – | 83.4 µM | – | 72.6 µM | – | 35.8 µM | – | – |
| Cn1cc(-c2csc(-c3c[nH]c4ncccc34)n2)c2cc(Br)cnc21 | – | – | 4.26 µM | > 100 µM | 3.72 µM | > 100 µM | 2.35 µM | > 100 µM | > 100 µM | > 100 µM | 2.21 µM | > 100 µM | 3.25 µM | > 100 µM | > 100 µM | > 100 µM | 9.65 µM | > 100 µM | – | – |
| CCCc1cc(=O)oc2c(C(=O)CC(C)C)c(O)c(CC=C(C)C)c(O)c12 | 11.4 µM | > 50 µM | 12.9 µM | > 50 µM | 12 µM | > 50 µM | 7.53 µM | 47.1 µM | 4.87 µM | > 50 µM | 15.4 µM | > 50 µM | 13.5 µM | 41.2 µM | – | – | 10.5 µM | 46.2 µM | > 50 µM | 16.2 µM |
| COc1ccc(/C=C/c2cc(OC)c(O[Si](C)(C)C(C)(C)C)c(OC)c2)cc1 | – | > 100 µM | – | – | – | > 100 µM | – | > 100 µM | – | > 100 µM | – | > 100 µM | – | > 100 µM | – | > 100 µM | – | > 100 µM | – | – |
| CC(=O)CC(=O)CCCC(=O)Nc1ccc(Cl)cc1C | – | > 100 µM | – | > 100 µM | – | > 100 µM | – | > 100 µM | – | > 100 µM | – | > 100 µM | – | > 100 µM | – | > 100 µM | – | > 100 µM | – | – |
| CCOC(=O)C1=C(Nc2ccccc2)OC/C1=N\NC(=O)Cc1ccccc1 | – | > 50 µM | – | > 50 µM | – | > 50 µM | – | – | – | > 50 µM | – | > 50 µM | – | > 50 µM | – | > 50 µM | – | > 50 µM | – | – |
| O=C(Nc1cccc(Cl)c1)Nc1cccc(Cl)c1 | – | – | 32 µM | > 100 µM | 15.3 µM | > 100 µM | – | – | – | – | 37.8 µM | > 100 µM | > 100 µM | > 100 µM | > 100 µM | > 100 µM | 36.7 µM | > 100 µM | – | – |
| COc1ccc(Nc2c3ccccc3nc3c2c2ccccc2n3C)cc1 | 17.8 µM | > 100 µM | 7.62 µM | 47.2 µM | 57.5 µM | > 100 µM | 21.6 µM | > 100 µM | – | – | 15.3 µM | > 100 µM | – | – | > 100 µM | > 100 µM | 40.6 µM | > 100 µM | 14 µM | 2.75 µM |
| O=[N+]([O-])c1cccc(C2SCc3nc4ccccc4n32)c1 (stereo unspecified) | – | > 100 µM | – | > 100 µM | – | > 100 µM | – | > 100 µM | – | – | – | > 100 µM | – | > 100 µM | – | > 100 µM | – | > 100 µM | > 100 µM | – |
| COC(=O)/C(C#N)=C\N1CCN(C(=O)c2ccco2)C1=S | 14.6 µM | 37.7 µM | 2.39 µM | 8 µM | 15.5 µM | 56.2 µM | 4.81 µM | 23.3 µM | – | – | 6.16 µM | 26.4 µM | 28.2 µM | > 100 µM | – | – | 6.25 µM | 21.7 µM | – | – |
